Results reported in patent US7332623B2 (Kaohsiung Medical University, priority 2003, dated 2008).

Legend:
KB cell = details: Table 1; cited from earlier work
Hep2,2,15 = details: Hep2,2,15, Table 1; cited from earlier work
[1] = system: DLD (DLD-1): human colon adenocarcinoma; experiment: In vitro anticancer assay (cytotoxicity), solid tumor cells
[2] = system: NCI (NCI-H661): human lung large cell carcinoma; experiment: as above

N#Cc1ccccc1C#C/C=C\C#CCCCOC1CCCCO1 (stereo not shown) [Compound 2, 2-(9-(Tetrahydropyranyloxy)-3(Z)-nonen-1,5-diynyl)-benzonitrile]
IC50 (KB cell): < 0.01 µM | IC50 (Hep2,2,15): > 10 µM | IC50 Values of Cytotoxicities [1]: — (“—” means IC50 > 20 μg/ml) | IC50 Values of Cytotoxicities [2]: — (“—” means IC50 > 20 μg/ml)
